PubChem BioAssay AID200 (DTP/NCI, 2004)
“And” between values parts separate entries of the source, which are not always exact repeats. Identical values can stand only once. Inconclusive results and toxic doses are left out.

Test system: B6C3F1 mice, B16 melanoma ip, median survival T/C
Experiment: NCI In Vivo Anticancer Drug Screen. Data for tumor model B16 Melanoma (intraperitoneal) in B6C3F1 mice
Details: endpoint: median survival time, higher = longer survival
In short: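 Antitumor effect was judged in mice with transplanted tumors by dividing the treated group's survival measure by that of vehicle controls.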

[1] = dose: 12.5 mg/kg/injection, schedule: Q01DX009 (ip), vehicle: saline
[2] = dose: 25.0 mg/kg/injection, schedule: Q01DX009 (ip), vehicle: saline
[3] = dose: 50.0 mg/kg/injection, schedule: Q01DX009 (ip), vehicle: saline
[4] = dose: 100.0 mg/kg/injection, schedule: Q01DX009 (ip), vehicle: saline
[5] = dose: 12.5 mg/kg/injection, schedule: Q01DX009 (ip), vehicle: saline with Tween-80
[6] = dose: 25.0 mg/kg/injection, schedule: Q01DX009 (ip), vehicle: saline with Tween-80
[7] = dose: 50.0 mg/kg/injection, schedule: Q01DX009 (ip), vehicle: saline with Tween-80
[8] = dose: 100.0 mg/kg/injection, schedule: Q01DX009 (ip), vehicle: saline with Tween-80
[9] = dose: 200.0 mg/kg/injection, schedule: Q01DX009 (ip), vehicle: saline with Tween-80
[10] = dose: 100.0 mg/kg/injection, schedule: Q01DX009 (ip), vehicle: Klucel (hydroxypropylcellulose) (HPC)
[11] = dose: 200.0 mg/kg/injection, schedule: Q01DX009 (ip), vehicle: Klucel (hydroxypropylcellulose) (HPC)
[12] = dose: 400.0 mg/kg/injection, schedule: Q01DX009 (ip), vehicle: Klucel (hydroxypropylcellulose) (HPC)
[13] = dose: 400.0 mg/kg/injection, schedule: Q01DX009 (ip), vehicle: saline with Tween-80

For `COc1ccc2c(c1O)-c1cccc3c1[C@@H](C2)N(CCCl)CC3`, the T/C (dose: 1.0 mg/kg/injection, schedule: Q01DX009 (ip), vehicle: Klucel (hydroxypropylcellulose) (HPC)) was 91 % of control and 100 % of control, the T/C (dose: 2.0 mg/kg/injection, schedule: Q01DX009 (ip), vehicle: Klucel (hydroxypropylcellulose) (HPC)) was 100 % of control and the T/C (dose: 4.0 mg/kg/injection, schedule: Q01DX009 (ip), vehicle: Klucel (hydroxypropylcellulose) (HPC)) was 97 % of control and 106 % of control. The T/C (dose: 8.0 mg/kg/injection, schedule: Q01DX009 (ip), vehicle: Klucel (hydroxypropylcellulose) (HPC)) was 98 % of control and 102 % of control.

In the case of `CC(C)C(N)C(=O)Nc1nncs1` (stereo unspecified), the T/C [1] is reported as 102 % of control, the T/C [2] is reported as 104 % of control and the T/C [3] is reported as 98 % of control. For the same compound, the T/C [4] was 113 % of control, the T/C (dose: 200.0 mg/kg/injection, schedule: Q01DX009 (ip), vehicle: saline) was 114 % of control and the T/C (dose: 400.0 mg/kg/injection, schedule: Q01DX009 (ip), vehicle: saline) was 117 % of control.

With `CC(=O)C[n+]1ccc(C)cc1Sc1ccccc1C` the T/C [5] was 97 % of control, the T/C [6] was 97 % of control and the T/C [7] was 96 % of control. For the same compound, the T/C [8] was 100 % of control and the T/C [9] was 101 % of control.

With `CC(C)=CC(=O)OC1C2C(C)=CC(=O)C(O)C2(C)C2C3(O)OCC24C(CC(=O)OC14)C(C)C3O` (stereo unspecified) the T/C (dose: 0.25 mg/kg/injection, schedule: Q01DX009 (ip), vehicle: distilled water + Tween-80) was 163 % of control and 168 % of control and the T/C (dose: 0.5 mg/kg/injection, schedule: Q01DX009 (ip), vehicle: distilled water + Tween-80) was 150 % of control and 160 % of control and 168 % of control.

In the case of `O=C(NO)c1cc(O)c(O)c(O)c1`, the T/C (dose: 25.0 mg/kg/injection, schedule: Q01DX009 (ip), vehicle: water) is reported as 100 % of control, the T/C (dose: 50.0 mg/kg/injection, schedule: Q01DX009 (ip), vehicle: water) is reported as 105 % of control and the T/C (dose: 100.0 mg/kg/injection, schedule: Q01DX009 (ip), vehicle: water) is reported as 114 % of control. The T/C (dose: 200.0 mg/kg/injection, schedule: Q01DX009 (ip), vehicle: water) was 118 % of control.

In the case of `CCCCC(NC(=O)C(C)NC(=O)OCc1ccccc1)C(=O)O` (stereo unspecified), the T/C [10] is reported as 101 % of control, the T/C [11] is reported as 99 % of control and the T/C [12] is reported as 94 % of control.

`N=C(N)c1nn(C2OC(CO)C(O)C2O)c2nc[nH]c(=O)c12` (stereo unspecified) was tested, and the T/C (dose: 2.25 mg/kg/injection, schedule: Q01DX009 (ip), vehicle: Klucel (hydroxypropylcellulose) (HPC)) was 92 % of control and 102 % of control, the T/C (dose: 3.12 mg/kg/injection, schedule: Q01DX009 (ip), vehicle: Klucel + Tween-80) was 99 % of control and the T/C (dose: 3.75 mg/kg/injection, schedule: Q01DX009 (ip), vehicle: Klucel (hydroxypropylcellulose) (HPC)) was 112 % of control and 101 % of control. For the same compound, the T/C (dose: 6.25 mg/kg/injection, schedule: Q01DX009 (ip), vehicle: Klucel (hydroxypropylcellulose) (HPC)) was 112 % of control and 90 % of control, the T/C (dose: 10.42 mg/kg/injection, schedule: Q01DX009 (ip), vehicle: Klucel (hydroxypropylcellulose) (HPC)) was 92 % of control and the T/C (dose: 17.36 mg/kg/injection, schedule: Q01DX009 (ip), vehicle: Klucel (hydroxypropylcellulose) (HPC)) was 110 % of control and 98 % of control.

In the case of `Nc1nc(N)c(N=O)c(Nc2ccc(Br)cc2)n1`, the T/C [6] is reported as 114 % of control, the T/C [7] is reported as 107 % of control and the T/C [8] is reported as 106 % of control.

In the case of `COc1cc2c[n+](C)c3c(c2cc1OC)Cc1cc2c(cc1-3)OCO2`, the T/C [5] is reported as 120 % of control, the T/C (dose: 12.5 mg/kg/injection, schedule: Q01DX009 (ip), vehicle: suspension in saline) is reported as 111 % of control and the T/C (dose: 25.0 mg/kg/injection, schedule: Q01DX009 (ip), vehicle: suspension in saline) is reported as 111 % of control. The T/C (dose: 50.0 mg/kg/injection, schedule: Q01DX009 (ip), vehicle: suspension in saline) was 110 % of control.

With `NCCSC(C[N+](=O)[O-])c1ccccc1Cl` (stereo unspecified) the T/C (dose: 6.25 mg/kg/injection, schedule: Q01DX009 (ip), vehicle: saline) was 103 % of control, the T/C [1] was 114 % of control and the T/C [2] was 93 % of control.

For `N#Cc1ccc(NC(=O)Nc2nncs2)cc1`, the T/C [5] was 120 % of control and 105 % of control, the T/C [6] was 118 % of control and 107 % of control and the T/C [7] was 111 % of control.

With `C=C1[C@@H](O)[C@]2(O)OC[C@@]34[C@H]1[C@@H](OC(=O)C(C)CC)C(=O)O[C@@H]3C[C@H]1C(C)=CC(=O)[C@@H](O)[C@]1(C)[C@@H]24` (stereo partly specified) the T/C (dose: 1.0 mg/kg/injection, schedule: Q01DX009 (ip), vehicle: saline with Tween-80) was 175 % of control, the T/C (dose: 2.0 mg/kg/injection, schedule: Q01DX009 (ip), vehicle: saline with Tween-80) was 165 % of control and the T/C (dose: 4.0 mg/kg/injection, schedule: Q01DX009 (ip), vehicle: saline with Tween-80) was 175 % of control. The T/C (dose: 8.0 mg/kg/injection, schedule: Q01DX009 (ip), vehicle: saline with Tween-80) was 165 % of control and the T/C (dose: 16.0 mg/kg/injection, schedule: Q01DX009 (ip), vehicle: saline with Tween-80) was 180 % of control.

In the case of `O=P1(N(CCCl)CCCl)NCCCO1` (stereo unspecified), the T/C [1] is reported as 121 % of control, the T/C (dose: 18.75 mg/kg/injection, schedule: Q01DX005 (ip), vehicle: saline) is reported as 104 % of control and the T/C (dose: 18.75 mg/kg/injection, schedule: Q01DX005 (iv), vehicle: saline) is reported as 111 % of control. The T/C (dose: 25.0 mg/kg/injection, schedule: Q01DX001 (ip), vehicle: saline) was 108 % of control and 103 % of control, the T/C (dose: 37.5 mg/kg/injection, schedule: Q01DX001 (ip), vehicle: saline) was 106 % of control and the T/C (dose: 37.5 mg/kg/injection, schedule: Q01DX001 (iv), vehicle: saline) was 104 % of control. The T/C (dose: 37.5 mg/kg/injection, schedule: Q01DX005 (ip), vehicle: saline) was 121 % of control, the T/C (dose: 50.0 mg/kg/injection, schedule: Q01DX001 (ip), vehicle: saline) was 111 % of control and 103 % of control and the T/C [3] was 154 % of control. For the same compound, the T/C (dose: 75.0 mg/kg/injection, schedule: Q01DX001 (ip), vehicle: saline) was 116 % of control, the T/C (dose: 75.0 mg/kg/injection, schedule: Q01DX001 (iv), vehicle: saline) was 114 % of control and the T/C (dose: 75.0 mg/kg/injection, schedule: Q01DX005 (iv), vehicle: saline) was 166 % of control. The T/C (dose: 150.0 mg/kg/injection, schedule: Q01DX005 (ip), vehicle: saline) was 190 % of control, the T/C (dose: 200.0 mg/kg/injection, schedule: Q01DX001 (ip), vehicle: saline) was 157 % of control and 161 % of control and the T/C (dose: 300.0 mg/kg/injection, schedule: Q01DX001 (ip), vehicle: saline) was 185 % of control. For the same compound, the T/C (dose: 300.0 mg/kg/injection, schedule: Q01DX001 (iv), vehicle: saline) was 166 % of control.

`NC(=O)c1cc(Cl)nc2nc(Cl)nc(N)c12` was tested, and the T/C [6] was 92 % of control, the T/C [7] was 101 % of control and the T/C [8] was 86 % of control. For the same compound, the T/C [9] was 98 % of control and the T/C [13] was 106 % of control.

With `CCC1OCCN1C(C)C` (stereo unspecified) the T/C [2] was 107 % of control, the T/C [3] was 107 % of control and the T/C [4] was 98 % of control.

`C=COC(=O)C(Cc1ccccc1)NC(=O)OCc1ccccc1` (stereo unspecified) was tested, and the T/C [6] was 102 % of control, the T/C [7] was 98 % of control and the T/C [8] was 96 % of control. The T/C [9] was 102 % of control and the T/C [13] was 90 % of control.

With `C=Cc1cc(OC)c2c(c1)c(=O)oc1c2cc(OC)c2c(O)ccc(C3OC(C(C)O)C(O)C3O)c21` (stereo unspecified) the T/C (dose: 25.0 mg/kg/injection, schedule: Q01DX009 (ip), vehicle: Klucel (hydroxypropylcellulose) (HPC)) was 165 % of control.

With `CC(C)(OC(=O)NC(CC(N)=O)C(=O)O)c1ccc(-c2ccccc2)cc1` (stereo unspecified) the T/C [10] was 97 % of control, the T/C [11] was 91 % of control and the T/C [12] was 89 % of control.

In the case of `Cn1c2nc(=O)n(-c3ccccc3)c(=O)c-2nc2c1CCCC2`, the T/C (dose: 6.25 mg/kg/injection, schedule: Q01DX008 (ip), vehicle: saline with Tween-80) is reported as 96 % of control, the T/C (dose: 6.25 mg/kg/injection, schedule: Q01DX009 (ip), vehicle: saline with Tween-80) is reported as 119 % of control and the T/C (dose: 12.5 mg/kg/injection, schedule: Q01DX008 (ip), vehicle: saline with Tween-80) is reported as 104 % of control. The T/C [5] was 107 % of control, the T/C (dose: 25.0 mg/kg/injection, schedule: Q01DX008 (ip), vehicle: saline with Tween-80) was 101 % of control and the T/C [6] was 107 % of control. The T/C (dose: 50.0 mg/kg/injection, schedule: Q01DX008 (ip), vehicle: saline with Tween-80) was 98 % of control, the T/C [7] was 101 % of control and the T/C [8] was 101 % of control and 102 % of control. For the same compound, the T/C [9] was 96 % of control and 97 % of control.
